{"source": "PubChem BioAssay AID2060883", "about": "(Molecular Pharmacology Branch, DTP, NCI, 2025);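 further: viability read after seven days of compound exposure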", "test_system": "843782-103-R-J1-PDC complex spheroid viability", "assay": "Anticancer human tumor 843782-103-R-J1-PDC patient-derived lung adenocarcinoma cell line growth inhibition [RAS]", "details": "for IC50: curve of first compound; for viability, T/C: stronger effect = lower value", "in_short": "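Agents were tested in combination matrices in half-log decrements from a top concentration at or near clinical Cmax (10 microM if undetermined). Targets were multi-cell spheroids of tumour lines plus HUVEC and MSC stromal cells.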", "data": [{"smiles": "CC(C)n1nc(-c2ccc3oc(N)nc3c2)c2c(N)ncnc21", "note": "+ C=CC(=O)N1CCN(c2nc(OCC3CCCN3C)nc3c(F)c(-c4nc(N)cc(C)c4C(F)(F)F)c(Cl)cc23)C(C)C1", "values": [{"measurement": "IC50", "setting": "second compound 0.00316 µM", "value": 14.2, "unit": "nM"}, {"measurement": "IC50", "setting": "second compound 0.01 µM", "value": 9.03, "unit": "nM"}, {"measurement": "IC50", "setting": "second compound 0.0316 µM", "value": 10.4, "unit": "nM"}, {"measurement": "IC50", "setting": "second compound 0.1 µM", "value": 8.53, "unit": "nM"}, {"measurement": "IC50", "setting": "second compound 0.316 µM", "value": 8.44, "unit": "nM"}, {"measurement": "IC50", "setting": "second compound 1 µM", "value": 9.84, "unit": "nM"}, {"measurement": "viability, T/C", "setting": "second compound 0.00316 µM, first compound 0.000316 µM", "value": 93.5, "unit": "%"}, {"measurement": "viability, T/C", "setting": "second compound 0.00316 µM, first compound 0.001 µM", "value": 72, "unit": "%"}, {"measurement": "viability, T/C", "setting": "second compound 0.00316 µM, first compound 0.00316 µM", "value": 81.2, "unit": "%"}, {"measurement": "viability, T/C", "setting": "second compound 0.00316 µM, first compound 0.01 µM", "value": 53.2, "unit": "%"}, {"measurement": "viability, T/C", "setting": "second compound 0.00316 µM, first compound 0.0316 µM", "value": 36.3, "unit": "%"}, {"measurement": "viability, T/C", "setting": "second compound 0.00316 µM, first compound 0.1 µM", "value": 21.2, "unit": "%"}, {"measurement": "viability, T/C", "setting": "second compound 0.01 µM, first compound 0.000316 µM", "value": 86.5, "unit": "%"}, {"measurement": "viability, T/C", "setting": "second compound 0.01 µM, first compound 0.001 µM", "value": 79.8, "unit": "%"}, {"measurement": "viability, T/C", "setting": "second compound 0.01 µM, first compound 0.00316 µM", "value": 63.3, "unit": "%"}, {"measurement": "viability, T/C", "setting": "second compound 0.01 µM, first compound 0.01 µM", "value": 50.2, "unit": "%"}, {"measurement": "viability, T/C", "setting": "second compound 0.01 µM, first compound 0.0316 µM", "value": 30.8, "unit": "%"}, {"measurement": "viability, T/C", "setting": "second compound 0.01 µM, first compound 0.1 µM", "value": 18.8, "unit": "%"}, {"measurement": "viability, T/C", "setting": "second compound 0.0316 µM, first compound 0.000316 µM", "value": 84.4, "unit": "%"}, {"measurement": "viability, T/C", "setting": "second compound 0.0316 µM, first compound 0.001 µM", "value": 79.2, "unit": "%"}, {"measurement": "viability, T/C", "setting": "second compound 0.0316 µM, first compound 0.00316 µM", "value": 66.6, "unit": "%"}, {"measurement": "viability, T/C", "setting": "second compound 0.0316 µM, first compound 0.01 µM", "value": 48.3, "unit": "%"}, {"measurement": "viability, T/C", "setting": "second compound 0.0316 µM, first compound 0.0316 µM", "value": 36.5, "unit": "%"}, {"measurement": "viability, T/C", "setting": "second compound 0.0316 µM, first compound 0.1 µM", "value": 20.9, "unit": "%"}, {"measurement": "viability, T/C", "setting": "second compound 0.1 µM, first compound 0.000316 µM", "value": 81.6, "unit": "%"}, {"measurement": "viability, T/C", "setting": "second compound 0.1 µM, first compound 0.001 µM", "value": 73.6, "unit": "%"}, {"measurement": "viability, T/C", "setting": "second compound 0.1 µM, first compound 0.00316 µM", "value": 66.4, "unit": "%"}, {"measurement": "viability, T/C", "setting": "second compound 0.1 µM, first compound 0.01 µM", "value": 45.4, "unit": "%"}, {"measurement": "viability, T/C", "setting": "second compound 0.1 µM, first compound 0.0316 µM", "value": 33.1, "unit": "%"}, {"measurement": "viability, T/C", "setting": "second compound 0.1 µM, first compound 0.1 µM", "value": 19.9, "unit": "%"}, {"measurement": "viability, T/C", "setting": "second compound 0.316 µM, first compound 0.000316 µM", "value": 101, "unit": "%"}, {"measurement": "viability, T/C", "setting": "second compound 0.316 µM, first compound 0.001 µM", "value": 73.5, "unit": "%"}, {"measurement": "viability, T/C", "setting": "second compound 0.316 µM, first compound 0.00316 µM", "value": 67.3, "unit": "%"}, {"measurement": "viability, T/C", "setting": "second compound 0.316 µM, first compound 0.01 µM", "value": 51, "unit": "%"}, {"measurement": "viability, T/C", "setting": "second compound 0.316 µM, first compound 0.0316 µM", "value": 28.8, "unit": "%"}, {"measurement": "viability, T/C", "setting": "second compound 0.316 µM, first compound 0.1 µM", "value": 19.2, "unit": "%"}, {"measurement": "viability, T/C", "setting": "second compound 1 µM, first compound 0.000316 µM", "value": 85.3, "unit": "%"}, {"measurement": "viability, T/C", "setting": "second compound 1 µM, first compound 0.001 µM", "value": 73.9, "unit": "%"}, {"measurement": "viability, T/C", "setting": "second compound 1 µM, first compound 0.00316 µM", "value": 62.2, "unit": "%"}, {"measurement": "viability, T/C", "setting": "second compound 1 µM, first compound 0.01 µM", "value": 53.5, "unit": "%"}, {"measurement": "viability, T/C", "setting": "second compound 1 µM, first compound 0.0316 µM", "value": 31.8, "unit": "%"}, {"measurement": "viability, T/C", "setting": "second compound 1 µM, first compound 0.1 µM", "value": 18.7, "unit": "%"}]}, {"smiles": "CCC(CC)c1cc(NC2CCC(N)C2)n2nccc2n1", "note": "(centres undefined) + CCn1c(-c2cccnc2C(C)OC)c2c3cc(ccc31)N1CCOC(CC(NC(=O)C(C(C)C)N(C)C(=O)C3(F)CCN(C(=O)C#CC(C)(C)N(C)C)CC3)C(=O)N3CCCC(N3)C(=O)OCC(C)(C)C2)C1", "values": [{"measurement": "IC50", "setting": "second compound 0.000949 µM", "value": 1020, "unit": "nM"}, {"measurement": "IC50", "setting": "second compound 0.003 µM", "value": 754, "unit": "nM"}, {"measurement": "IC50", "setting": "second compound 0.00949 µM", "value": 1040, "unit": "nM"}, {"measurement": "IC50", "setting": "second compound 0.03 µM", "value": 1070, "unit": "nM"}, {"measurement": "IC50", "setting": "second compound 0.0949 µM", "value": 768, "unit": "nM"}, {"measurement": "IC50", "setting": "second compound 0.3 µM", "value": 883, "unit": "nM"}, {"measurement": "viability, T/C", "setting": "second compound 0.000949 µM, first compound 0.0316 µM", "value": 70.7, "unit": "%"}, {"measurement": "viability, T/C", "setting": "second compound 0.000949 µM, first compound 0.1 µM", "value": 66.5, "unit": "%"}, {"measurement": "viability, T/C", "setting": "second compound 0.000949 µM, first compound 0.316 µM", "value": 73.8, "unit": "%"}, {"measurement": "viability, T/C", "setting": "second compound 0.000949 µM, first compound 1 µM", "value": 50.8, "unit": "%"}, {"measurement": "viability, T/C", "setting": "second compound 0.000949 µM, first compound 3.16 µM", "value": 1.84, "unit": "%"}, {"measurement": "viability, T/C", "setting": "second compound 0.000949 µM, first compound 10 µM", "value": 0.99, "unit": "%"}, {"measurement": "viability, T/C", "setting": "second compound 0.003 µM, first compound 0.0316 µM", "value": 70.5, "unit": "%"}, {"measurement": "viability, T/C", "setting": "second compound 0.003 µM, first compound 0.1 µM", "value": 87, "unit": "%"}, {"measurement": "viability, T/C", "setting": "second compound 0.003 µM, first compound 0.316 µM", "value": 67.8, "unit": "%"}, {"measurement": "viability, T/C", "setting": "second compound 0.003 µM, first compound 1 µM", "value": 44.1, "unit": "%"}, {"measurement": "viability, T/C", "setting": "second compound 0.003 µM, first compound 3.16 µM", "value": 1.8, "unit": "%"}, {"measurement": "viability, T/C", "setting": "second compound 0.003 µM, first compound 10 µM", "value": 0.91, "unit": "%"}, {"measurement": "viability, T/C", "setting": "second compound 0.00949 µM, first compound 0.0316 µM", "value": 73.5, "unit": "%"}, {"measurement": "viability, T/C", "setting": "second compound 0.00949 µM, first compound 0.1 µM", "value": 73.7, "unit": "%"}, {"measurement": "viability, T/C", "setting": "second compound 0.00949 µM, first compound 0.316 µM", "value": 78.1, "unit": "%"}, {"measurement": "viability, T/C", "setting": "second compound 0.00949 µM, first compound 1 µM", "value": 51.9, "unit": "%"}, {"measurement": "viability, T/C", "setting": "second compound 0.00949 µM, first compound 3.16 µM", "value": 3.01, "unit": "%"}, {"measurement": "viability, T/C", "setting": "second compound 0.00949 µM, first compound 10 µM", "value": 1.66, "unit": "%"}, {"measurement": "viability, T/C", "setting": "second compound 0.03 µM, first compound 0.0316 µM", "value": 78.4, "unit": "%"}, {"measurement": "viability, T/C", "setting": "second compound 0.03 µM, first compound 0.1 µM", "value": 82.8, "unit": "%"}, {"measurement": "viability, T/C", "setting": "second compound 0.03 µM, first compound 0.316 µM", "value": 71.9, "unit": "%"}, {"measurement": "viability, T/C", "setting": "second compound 0.03 µM, first compound 1 µM", "value": 53.5, "unit": "%"}, {"measurement": "viability, T/C", "setting": "second compound 0.03 µM, first compound 3.16 µM", "value": 1.5, "unit": "%"}, {"measurement": "viability, T/C", "setting": "second compound 0.03 µM, first compound 10 µM", "value": 1.09, "unit": "%"}, {"measurement": "viability, T/C", "setting": "second compound 0.0949 µM, first compound 0.0316 µM", "value": 74.6, "unit": "%"}, {"measurement": "viability, T/C", "setting": "second compound 0.0949 µM, first compound 0.1 µM", "value": 67.4, "unit": "%"}, {"measurement": "viability, T/C", "setting": "second compound 0.0949 µM, first compound 0.316 µM", "value": 65.7, "unit": "%"}, {"measurement": "viability, T/C", "setting": "second compound 0.0949 µM, first compound 1 µM", "value": 44.8, "unit": "%"}, {"measurement": "viability, T/C", "setting": "second compound 0.0949 µM, first compound 3.16 µM", "value": 1.32, "unit": "%"}, {"measurement": "viability, T/C", "setting": "second compound 0.0949 µM, first compound 10 µM", "value": 0.88, "unit": "%"}, {"measurement": "viability, T/C", "setting": "second compound 0.3 µM, first compound 0.0316 µM", "value": 77.3, "unit": "%"}, {"measurement": "viability, T/C", "setting": "second compound 0.3 µM, first compound 0.1 µM", "value": 67.2, "unit": "%"}, {"measurement": "viability, T/C", "setting": "second compound 0.3 µM, first compound 0.316 µM", "value": 61.8, "unit": "%"}, {"measurement": "viability, T/C", "setting": "second compound 0.3 µM, first compound 1 µM", "value": 48.4, "unit": "%"}, {"measurement": "viability, T/C", "setting": "second compound 0.3 µM, first compound 3.16 µM", "value": 1.4, "unit": "%"}, {"measurement": "viability, T/C", "setting": "second compound 0.3 µM, first compound 10 µM", "value": 0.57, "unit": "%"}]}]}
